pIC50: −log10 of the molar value. Non-standard residues stand in square brackets, D forms with d. Residues, ends and D or L forms follow the SMILES beside them.
What was measured:
Type in all cases: cell-based
GPR54 [1] = biological target: T1, GPR54 (Homo sapiens, UniProt Q969F8); assay: Inositol phosphate (IP) stimulation assay in CHO/gpr-54 cells; design: G. Vassart, Univ; Brussels; conditions: CHO cells stably-expressing human gpr-54
Protocol: Inositol-3-phoshate Stimulation Assay—Cell monolayers had 0.5 mls HEPES modified DMEM supplemented with 1% Penicillin/Streptomycin for 30 mins at 37° C. to block IP3 breakdown. Cells were then stimulated with 0.5 mls Kisspeptin-10 and analogues (10 pM-1 uM) diluted at 1:1000 in the above media for 1 hr at 37° C., then in 10 mM Formic acid at 4° C. for 1 hr to lyse cells. Lysate was then transferred to plastic tubes containing 0.5 mls Dowex resin to bind the radioactive IP3 and the resin was then washed with 1 ml H2O. The resin was then washed with 60 mM NH4 formate/5 mM Sodium tetraborate followed by 1M NH4 formate/0.1M Formic acid to release the bound radiation. Then 800 μls of the radioactive solution were transferred to scintillation vials containing 2.5 mls scintillation fluid and radioactivity counted on a Beta counter for 60 seconds.
IP stimulation refers to intrinsic residual agonist activity where estimateable.
The cells were maintained in Dulbecco's modified Eagle's medium (DMEM; Sigma) supplemented with 10% fetal calf serum, 2% glutamine and 1% penicillin (10,000 units/ml)/streptomycin (10,000 mg/ml) at 37° C. in a humidified 5% CO2 atmosphere.
Prior to stimulation CHO/gpr-54 cells were washed twice with Dulbecco's phosphate-buffered saline (DPBS; without calcium or magnesium) then incubated overnight with ^3H-myoinositol, labeled HEPES-modified DMEM with 1% penicillin/streptomycin at 37° C. HEPES-modified DMEM supplemented with 1% penicillin/streptomycin and 1% lithium chloride (0.5 ml) was added to cells for 30 min at 37° C. to block IP hydrolysis. Cells were then stimulated with 0.5 ml kisspeptin-10 and analogues (10 pM-1 μM) diluted at 1:100 in the above media for 1 h at 37° C., then with 10 mM formic acid at 4° C. for 1 h to lyse cells. Lysates were transferred to plastic tubes containing 0.5 ml Dowex resin to bind the radioactive IP and the resin was then washed with 1 ml water. The resin was next washed with 60 mM ammonium formate/5 mM sodium tetraborate. followed by 1M ammonium formate/0.1M formic acid to release the bound radiation. Then 800 μl of the radioactive solution were transferred to scintillation vials containing 2.5 ml scintillation fluid and radioactivity counted on a Beta counter for 60 sec. Experiments were repeated 3-5 times. IP production was plotted as mean values±SEM and analyzed by using a Student's t-Test (p≧0.05).

GPR54 [2] = biological target: T1, GPR54; assay: Inositol phosphate (IP) antagonism assay: inhibition of 10 nM kisspeptin-10 stimulation of IP in CHO/gpr-54 cells; design: G. Vassart, Univ; Brussels; conditions: CHO cells, 10 nM kisspeptin-10; for pIC50: unit inferred, given in M
Protocol: Inositol-3-phoshate Antagonistic Assay—Cell monolayers had 0.5 mls HEPES modified DMEM supplemented with […] for 30 mins at 37° C. to block IP3 breakdown. Cells were then stimulated with 0.25 mls 10 nM Kisspeptin-10 plus 0.25 mls of 10 nM Kisspeptin-10 or analogues (10 pM-10 uM) diluted at 1:1000 in the above media for 1 hr at 37° C., then in 10 mM Formic acid at 4° C. for 1 hr to lyse cells. Lysate was then transferred to plastic tubes containing 0.5 mls Dowex resin to bind the radioactive IP3 and the resin was then washed with 1 ml H2O. The resin was then washed with 60 mM NH4 formate/5 mM Sodium tetraborate followed by 1M NH4 formate/0.1M Formic acid to release the bound radiation. Then 800 μls of the radioactive solution were transferred to scintillation vials containing 2.5 mls scintillation fluid and radioactivity counted on a Beta counter for 60 seconds.
Chinese hamster ovary (CHO) cells stably-expressing the human gpr-54 receptor (CHO/gpr-54) were obtained from Prof. G. Vassart, Univ. Brussels. The cells were maintained in Dulbecco's modified Eagle's medium (DMEM; Sigma) supplemented with 10% fetal calf serum, 2% glutamine and 1% penicillin (10,000 units/ml)/streptomycin ([…]) at 37° C. in a humidified 5% CO2 atmosphere.
Experiments were repeated 3-5 times. IP production was plotted as mean values±SEM and analyzed using a Student's t-Test ([…]).

[3] = tested on: HUVECs (Human Umbilical Vein Endothelial Cells); assay: Cell migration (wound healing) assay in HUVECs; conditions: 22 hrs
Protocol: Human Umbilical Vein Endothelial Cells (HUVECs) isolated from neonatal umbilical cord were used as they endogenously express gpr-54, which is though to be involved in cell migration in the placenta. Chinese hamster ovary (CHO) cells which stably express the human gpr-54 receptor were used as a model cell line for wound healing assays. […] Complete media was added along with 1 nM Kisspeptin-10 for HUVECs and 100 nM Kisspeptin-10 for CHO cells, the optimal concentrations to inhibit cell migration (wound healing) in each cell type, in the presence and absence of antagonist 233, 234, 273 and 276 for HUVECs and 234 for CHOs. […] Cells were photographed on the axiovert 2000 at 20× magnification in phase contrast (Hori et al., 2001. Metastin suppresses the motility and growth of CHO cells transfected with its receptor. Biochem Biophys Res Commun 286, 958-963; Stafford et al., 2002, Identification and characterization of mouse metastasis-suppressor KiSS1 and its G-protein-coupled receptor. Cancer Res 62, 5399-5404).

T1 sequence (Q969F8 whole entry): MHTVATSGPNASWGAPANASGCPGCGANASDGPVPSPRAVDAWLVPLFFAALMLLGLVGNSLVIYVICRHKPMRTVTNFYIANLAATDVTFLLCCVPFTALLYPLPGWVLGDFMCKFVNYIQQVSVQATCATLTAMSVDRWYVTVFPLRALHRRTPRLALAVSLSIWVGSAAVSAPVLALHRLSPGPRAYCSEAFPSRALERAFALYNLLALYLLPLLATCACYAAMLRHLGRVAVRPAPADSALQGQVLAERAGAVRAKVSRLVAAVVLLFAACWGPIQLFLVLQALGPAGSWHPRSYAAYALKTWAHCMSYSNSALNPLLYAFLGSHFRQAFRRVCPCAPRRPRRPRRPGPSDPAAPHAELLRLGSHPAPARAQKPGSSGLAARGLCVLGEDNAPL

SMILES | stimulation of IP by the peptide alone (GPR54 [1]) | pIC50 (GPR54 [2]) | inhibition of migration by 1 nM Kisspeptin in the presence of peptide [3] [%] | Inhibition of IP stimulation by 10 nM Agonist: % Inhibition of Max (GPR54 [2]) [%]
CC(=O)N[C@H](Cc1ccc(O)cc1)C(=O)N[C@@H](CC(N)=O)C(=O)N[C@@H](Cc1c[nH]c2ccccc12)C(=O)N[C@@H](CC(N)=O)C(=O)NCC(=O)N[C@@H](Cc1ccccc1)C(=O)NCC(=O)N[C@H](Cc1c[nH]c2ccccc12)C(=O)N[C@@H](CCCNC(=N)N)C(=O)N[C@@H](Cc1ccccc1)C(N)=O [Peptide 230] (Ac-[dY]NWNGFG[dW]RF-NH2) | little or no stimulation | 7.30 |  | 
CC(=O)N[C@@H](Cc1ccc(O)cc1)C(=O)N[C@H](CC(N)=O)C(=O)N[C@@H](Cc1c[nH]c2ccccc12)C(=O)N[C@@H](CC(N)=O)C(=O)NCC(=O)N[C@@H](Cc1ccccc1)C(=O)NCC(=O)N[C@H](Cc1c[nH]c2ccccc12)C(=O)N[C@@H](CCCNC(=N)N)C(=O)N[C@@H](Cc1ccccc1)C(N)=O [Peptide 232] (Ac-Y[dN]WNGFG[dW]RF-NH2) | little or no stimulation | 7.52 |  | 
CC(=O)N[C@@H](Cc1ccc(O)cc1)C(=O)N[C@@H](CC(N)=O)C(=O)N[C@@H](Cc1c[nH]c2ccccc12)C(=O)N[C@@H](CC(N)=O)C(=O)N[C@H](C)C(=O)N[C@@H](Cc1ccccc1)C(=O)NCC(=O)N[C@H](Cc1c[nH]c2ccccc12)C(=O)N[C@@H](CCCNC(=N)N)C(=O)N[C@@H](Cc1ccccc1)C(N)=O [Peptide 233] (Ac-YNWN[dA]FG[dW]RF-NH2) | little or no stimulation | 7.70 | 10 | 
CC(=O)N[C@@H](Cc1ccc(O)cc1)C(=O)N[C@@H](CC(N)=O)C(=O)N[C@H](C)C(=O)N[C@@H](CC(N)=O)C(=O)NCC(=O)N[C@@H](Cc1ccccc1)C(=O)NCC(=O)N[C@H](Cc1c[nH]c2ccccc12)C(=O)N[C@@H](CCCNC(=N)N)C(=O)N[C@@H](Cc1ccccc1)C(N)=O [Peptide 235] (Ac-YN[dA]NGFG[dW]RF-NH2) | little or no stimulation | 8.00 |  | 
CC(=O)N[C@@H](Cc1ccc(O)cc1)C(=O)N[C@H](C)C(=O)N[C@@H](Cc1c[nH]c2ccccc12)C(=O)N[C@@H](CC(N)=O)C(=O)NCC(=O)N[C@@H](Cc1ccccc1)C(=O)NCC(=O)N[C@H](Cc1c[nH]c2ccccc12)C(=O)N[C@@H](CCCNC(=N)N)C(=O)N[C@@H](Cc1ccccc1)C(N)=O [Peptide 236] (Ac-Y[dA]WNGFG[dW]RF-NH2) | little or no stimulation | 7.30 |  | 
CC(=O)N[C@H](C)C(=O)N[C@@H](CC(N)=O)C(=O)N[C@@H](Cc1c[nH]c2ccccc12)C(=O)N[C@@H](CC(N)=O)C(=O)N[C@H](CO)C(=O)N[C@@H](Cc1ccccc1)C(=O)NCC(=O)N[C@H](Cc1c[nH]c2ccccc12)C(=O)N[C@@H](CCCNC(=N)N)C(=O)N[C@@H](Cc1ccccc1)C(N)=O [Peptide 273] (Ac-[dA]NWN[dS]FG[dW]RF-NH2) |  | 8.40 | 10 | 79
CC(=O)N[C@H](C)C(=O)N[C@@H](CC(N)=O)C(=O)N[C@@H](Cc1c[nH]c2ccccc12)C(=O)N[C@@H](CC(N)=O)C(=O)N[C@H](C)C(=O)N[C@@H](Cc1ccccc1)C(=O)NCC(=O)N[C@@H](CC(C)C)C(=O)N[C@@H](CCCNC(=N)N)C(=O)N[C@@H](Cc1ccccc1)C(N)=O [Peptide 277] (Ac-[dA]NWN[dA]FGLRF-NH2) |  |  |  | 57
CC(=O)N[C@H](C)C(=O)N[C@@H](CC(N)=O)C(=O)N[C@@H](Cc1c[nH]c2ccccc12)C(=O)N[C@@H](CC(N)=O)C(=O)NCC(=O)N[C@@H](Cc1ccccc1)C(=O)NCC(=O)N[C@@H](CC(C)C)C(=O)N[C@H](CCCNC(=N)N)C(=O)N[C@@H](Cc1ccccc1)C(N)=O [Peptide 278] (Ac-[dA]NWNGFGL[dR]F-NH2) |  | < 6.70 |  | 47

— patent US8916681B2, “Compound, use and method” (Medical Research Council, priority 2007, dated 2014)
